Earlier results as cited in patent US20130230609A1, “ANTIMICROBIAL/PRESERVATIVE COMPOSITIONS COMPRISING BOTANICALS” (priority 2012, published 2013).

Row | Substance | water solubility (in words)
1 | zinc glycerate | moderately water soluble
2 | zinc picolinate | moderately water soluble
